Source: the supplement of paper PMC10307832

Legend:
Test in all cases: relative viability (nuclei count vs DMSO), 5 days (fraction); higher = more cells survive
Carfilzomib + Dasatinib = compound: CC(C)C[C@H](NC(=O)[C@H](CCc1ccccc1)NC(=O)CN1CCOCC1)C(=O)N[C@@H](Cc1ccccc1)C(=O)N[C@@H](CC(C)C)C(=O)[C@@]1(C)CO1 [Carfilzomib] + Cc1nc(Nc2ncc(C(=O)Nc3c(C)cccc3Cl)s2)cc(N2CCN(CCO)CC2)n1 [Dasatinib] (partner 0.075 µM)
Procedure, shortened: (§1)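 Relative viability equals treated-well nuclei counts divided by vehicle-well nuclei counts. Counts came from 4× images of lung cancer cell lines grown in 1536-well plates for 5 days after pin-tool dosing on the day after seeding. Dosing used one drug alone or a fixed anchor-drug dose plus five library-drug doses (not always all listed) in √10 steps, and values are medians of duplicate plates.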

Carfilzomib + Vorinostat = compound: CC(C)C[C@H](NC(=O)[C@H](CCc1ccccc1)NC(=O)CN1CCOCC1)C(=O)N[C@@H](Cc1ccccc1)C(=O)N[C@@H](CC(C)C)C(=O)[C@@]1(C)CO1 [Carfilzomib] + O=C(CCCCCCC(=O)Nc1ccccc1)NO [Vorinostat] (partner 1 µM)
Procedure, shortened: as §1

Olaparib + AZD7762 = compound: O=C(c1cc(Cc2n[nH]c(=O)c3ccccc23)ccc1F)N1CCN(C(=O)C2CC2)CC1 [Olaparib] + NC(=O)Nc1cc(-c2cccc(F)c2)sc1C(=O)N[C@H]1CCCNC1 [AZD7762] (partner 0.2 µM)
Procedure, shortened: as §1

Olaparib + Vorinostat = compound: O=C(c1cc(Cc2n[nH]c(=O)c3ccccc23)ccc1F)N1CCN(C(=O)C2CC2)CC1 [Olaparib] + O=C(CCCCCCC(=O)Nc1ccccc1)NO [Vorinostat] (partner 1 µM)
Procedure, shortened: as §1

| Cell Line | relative viability (Carfilzomib + Dasatinib; first compound 0.001 µM) | relative viability (Carfilzomib + Dasatinib; first compound 0.003162 µM) | relative viability (Carfilzomib + Dasatinib; first compound 0.01 µM) | relative viability (Carfilzomib + Dasatinib; first compound 0.03162 µM) | relative viability (Carfilzomib + Dasatinib; first compound 0.1 µM) | relative viability (Carfilzomib + Vorinostat; first compound 0.001 µM) | relative viability (Carfilzomib + Vorinostat; first compound 0.003162 µM) | relative viability (Carfilzomib + Vorinostat; first compound 0.01 µM) | relative viability (Carfilzomib + Vorinostat; first compound 0.03162 µM) | relative viability (Carfilzomib + Vorinostat; first compound 0.1 µM) | relative viability (Olaparib + AZD7762; first compound 0.08 µM) | relative viability (Olaparib + AZD7762; first compound 0.253 µM) | relative viability (Olaparib + AZD7762; first compound 2.53 µM) | relative viability (Olaparib + AZD7762; first compound 8 µM) | relative viability (Olaparib + Vorinostat; first compound 0.08 µM) | relative viability (Olaparib + Vorinostat; first compound 0.253 µM) | relative viability (Olaparib + Vorinostat; first compound 2.53 µM) | relative viability (Olaparib + Vorinostat; first compound 8 µM) |
| --- | --- | --- | --- | --- | --- | --- | --- | --- | --- | --- | --- | --- | --- | --- | --- | --- | --- | --- |
| NCI-H1355 | 0.628 | 0.785 | 0.686 | 0.382 | 0.264 | 0.533 | 0.703 | 0.664 | 0.569 | 0.142 | 0.74 | 0.749 | 0.714 | 0.696 | 0.683 | 0.645 | 0.638 | 0.641 |
| NCI-H1395 | 0.411 | 0.426 | 0.417 | 0.36 | 0.314 |  | 0.791 | 0.469 | 0.306 | 0.316 | 0.429 | 0.334 | 0.384 | 0.359 | 0.775 | 0.501 | 0.516 | 0.419 |
| NCI-H1437 | 0.28 | 0.483 | 0.419 | 0.257 | 0.133 | 0.834 | 0.895 | 1.14 | 0.435 | 0.206 | 1.19 | 1.11 | 1.15 | 0.997 | 0.945 | 0.746 | 0.695 | 0.639 |
| NCI-H1651 | 0.361 | 0.295 | 0.266 | 0.104 | 0.0779 | 0.602 | 0.597 | 0.447 | 0.188 | 0.104 | 0.486 | 0.424 | 0.363 | 0.184 | 0.493 | 0.515 | 0.493 | 0.365 |
| NCI-H1666 | 0.812 | 0.878 | 0.817 | 0.568 | 0.352 | 0.972 | 0.933 | 1.15 | 1.03 | 0.599 | 0.892 | 0.725 | 0.781 | 0.835 | 1.06 | 0.957 | 0.981 | 0.836 |
| NCI-H1734 | 0.462 | 0.503 | 0.487 | 0.2 | 0.148 | 0.75 | 0.932 | 0.592 | 0.119 | 0.109 | 0.611 | 0.49 | 0.441 | 0.333 | 0.868 | 0.74 | 0.715 | 0.572 |
| NCI-H1755 | 0.428 | 0.45 | 0.479 | 0.365 | 0.263 | 0.806 | 0.793 | 0.664 | 0.464 | 0.383 | 0.452 | 0.451 | 0.489 | 0.399 | 0.748 | 0.588 | 0.704 | 0.637 |
| NCI-H1915 | 0.271 | 0.344 | 0.299 | 0.174 | 0.102 | 0.499 | 0.537 | 0.452 | 0.517 | 0.0617 | 0.544 | 0.561 | 0.404 | 0.245 | 0.495 | 0.438 | 0.373 | 0.281 |
| NCI-H1944 | 0.214 | 0.233 | 0.186 | 0.203 | 0.135 | 0.523 | 0.744 | 0.527 | 0.505 | 0.215 | 0.511 | 0.729 | 0.43 | 0.383 | 0.534 | 0.423 | 0.399 | 0.367 |
